Values quoted from earlier work, collected in EP4374853A1, “SOLID FORMULATION OF ENZALUTAMIDE” (Lotus Pharmaceutical Co., Ltd., priority 2022, dated 2024).

What was measured:
[1] = between pH 1-11

**Q.** With CNC(=O)c1ccc(N2C(=S)N(c3ccc(C#N)c(C(F)(F)F)c3)C(=O)C2(C)C)cc1F [Enzalutamide, 4-{3-[4-cyano-3-(trifluoromethyl)phenyl]-5,5-dimethyl-4-oxo-2-sulfanylideneimiidazolidin-1-yl}-2-fluoro-N-methylbenzymide] as the compound, how does the “Solubility in aqueous media” value [1] read?
**A.** Its value is “practically insoluble”.

**Q.** And the Permeability?
**A.** The Permeability was “high permeability”.
